Experimental data from patent US10173991B2, “Sulfone amide linked benzothiazole inhibitors of endothelial lipase” (BRISTOL-MYERS SQUIBB COMPANY, priority 2014, dated 2019).

biological target: Endothelial lipase (EL) (Homo sapiens (Human), UniProt Q9Y5X9); experiment: Endothelial lipase (EL) enzymatic assay with fluorescent substrate A10070 in DMPG vesicles; assay type: biochemical
Outline: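 Vesicles prepared: A10070 dried with DMPG, resuspended in HEPES pH 8.0/NaCl/EDTA, sonicated on ice. Enzyme incubated with compound 30 min at 37° C. Reaction started with 1:10 diluted vesicles. Fluorescence (490/530 nm) followed 60 min; slope from 300–900 secs gives rate.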

Endothelial lipase (EL), sequence (Q9Y5X9 21-500): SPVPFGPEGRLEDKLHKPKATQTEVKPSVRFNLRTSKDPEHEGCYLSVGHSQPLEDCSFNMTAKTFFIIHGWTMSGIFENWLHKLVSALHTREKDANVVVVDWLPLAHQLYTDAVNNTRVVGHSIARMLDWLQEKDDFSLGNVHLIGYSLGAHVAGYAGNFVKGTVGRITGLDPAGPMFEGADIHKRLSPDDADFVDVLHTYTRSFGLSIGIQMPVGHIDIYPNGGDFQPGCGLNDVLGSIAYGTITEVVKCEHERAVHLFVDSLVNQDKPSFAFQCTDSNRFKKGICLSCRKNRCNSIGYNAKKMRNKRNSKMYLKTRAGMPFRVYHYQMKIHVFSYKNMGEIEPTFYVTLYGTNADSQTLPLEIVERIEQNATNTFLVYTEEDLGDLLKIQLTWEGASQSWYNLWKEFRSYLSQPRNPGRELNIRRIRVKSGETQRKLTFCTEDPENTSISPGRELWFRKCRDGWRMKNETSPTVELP

Structure (SMILES) | IC50 [nM]
COCCS(=O)(=O)C(C(=O)NCC(=O)NC1CC1)c1nc2cc(-c3cnc(-n4cccn4)nc3)c(F)cc2s1 (stereo not drawn) [Example 131, N-[(cyclopropyl-carbamoyl)methyl]-2-{6-fluoro-5-[2-(1H-pyrazol-1-yl)pyrimidin-5-yl]-1,3-benzothiazol-2-yl}-2-(2-methoxyethane-sulfonyl) acetamide] | 131
COCCS(=O)(=O)C(C(=O)NCC(=O)NC1CC1)c1nc2cc(-c3ccc(-n4cnnn4)cc3)c(F)cc2s1 (stereo not drawn) [Example 132, N-[(cyclopropyl-carbamoyl)methyl]-2-{6-fluoro-5-[4-(1H-1,2,3,4-tetrazol-1-yl)phenyl]-1,3-benzothiazol-2-yl}-2-(2-methoxyethane-sulfonyl) acetamide] | 52
O=C(CNC(=O)C(c1nc2cc(F)c(-c3ccn(Cc4ccccc4)c(=O)c3)cc2s1)S(=O)(=O)CCC(F)(F)F)NC1CC1 (stereo not drawn) [Example 136, 2-[6-(1-benzyl-2-oxo-1,2-dihydropyridin-4-yl)-5-fluoro-1,3-benzothiazol-2-yl]-N-[(cyclopropyl-carbamoyl)methyl]-2-(3,3,3-trifluoropropane-sulfonyl) acetamide] | 6
O=C(CNC(=O)C(c1nc2cc(F)c(-c3cccc(-n4cccn4)c3)cc2s1)S(=O)(=O)CCC(F)(F)F)NC1CC1 (stereo not drawn) [Example 137, N-[(cyclopropyl-carbamoyl)methyl]-2-{5-fluoro-6-[3-(1H-pyrazol-1-yl)phenyl]-1,3-benzothiazol-2-yl}-2-(3,3,3-trifluoropropane-sulfonyl) acetamide] | 1
O=C(CNC(=O)C(c1nc2cc(F)c(-c3ccc(-n4cccn4)cc3)cc2s1)S(=O)(=O)CCC(F)(F)F)NC1CC1 (stereo not drawn) [Example 138, N-[(cyclopropyl-carbamoyl)methyl]-2-{5-fluoro-6-[4-(1H-pyrazol-1-yl)phenyl]-1,3-benzothiazol-2-yl}-2-(3,3,3-trifluoropropane-sulfonyl) acetamide] | 6
COCCS(=O)(=O)C(C(=O)NCC(=O)NC1CC1)c1nc2cc(F)c(-c3ccc(-n4cccn4)cc3)cc2s1 (stereo not drawn) [Example 139, N-[(cyclopropyl-carbamoyl)methyl]-2-{5-fluoro-6-[4-(1H-pyrazol-1-yl)phenyl]-1,3-benzothiazol-2-yl}-2-(2-methoxyethane-sulfonyl) acetamide] | 2
COCCS(=O)(=O)C(C(=O)NCC(=O)NC1CC1)c1nc2cc(F)c(-c3cccc(-n4cccn4)c3)cc2s1 (stereo not drawn) [Example 141, N-[(cyclopropyl-carbamoyl)methyl]-2-{5-fluoro-6-[3-(1H-pyrazol-1-yl)phenyl]-1,3-benzothiazol-2-yl}-2-(2-methoxyethane-sulfonyl) acetamide] | 2
O=C(CNC(=O)C(c1nc2cc(F)c(-c3ccc(-n4cnnn4)cc3)cc2s1)S(=O)(=O)CCC(F)(F)F)NC1CC1 (stereo not drawn) [Example 142, N-[(cyclopropyl-carbamoyl)methyl]-2-{5-fluoro-6-[4-(1H-1,2,3,4-tetrazol-1-yl)phenyl]-1,3-benzothiazol-2-yl}-2-(3,3,3-trifluoropropane-sulfonyl) acetamide] | 5
O=C(CNC(=O)C(c1nc2cc(F)c(-c3cccc(-c4cc[nH]n4)c3)cc2s1)S(=O)(=O)CCC(F)(F)F)NC1CC1 (stereo not drawn) [Example 143, N-[(cyclopropyl-carbamoyl)methyl]-2-{5-fluoro-6-[3-(1H-pyrazol-3-yl)phenyl]-1,3-benzothiazol-2-yl}-2-(3,3,3-trifluoropropane-sulfonyl) acetamide] | 3
O=C(CNC(=O)C(c1nc2cc(F)c(-c3ccc(-c4ccn[nH]4)cc3)cc2s1)S(=O)(=O)CCC(F)(F)F)NC1CC1 (stereo not drawn) [Example 144, N-[(cyclopropyl-carbamoyl)methyl]-2-{5-fluoro-6-[4-(1H-pyrazol-5-yl)phenyl]-1,3-benzothiazol-2-yl}-2-(3,3,3-trifluoropropane-sulfonyl) acetamide] | 1
COCCS(=O)(=O)C(C(=O)NCC(=O)NC1CC1)c1nc2cc(C)c(-c3ccc4c(cnn4C)c3)cc2s1 (stereo not drawn) [Example 148, N-[(cyclopropyl-carbamoyl)methyl]-2-(2-methoxyethane-sulfonyl)-2-[5-methyl-6-(1-methyl-1H-indazol-5-yl)-1,3-benzothiazol-2-yl] acetamide] | 2

Other lines, results leading:

IC50 [nM] | Structure (SMILES)
2 | COC(=O)Nc1ccc(-c2cc(Cl)c3nc(C(C(=O)NCC(=O)NC4CC4)S(C)(=O)=O)sc3c2)cc1F (stereo not drawn) [Example 124, methyl N-{4-[4-chloro-2-({[(cyclopropyl-carbamoyl)methyl]carbamoyl} (methanesulfonyl)methyl)-1,3-benzothiazol-6-yl]-2-fluorophenyl} carbamate]
2 | COC(=O)Nc1ccc(-c2cc(Cl)c3nc(C(C(=O)NCC(=O)NC4CC4)S(C)(=O)=O)sc3c2)cc1 (stereo not drawn) [Example 125, methyl N-{4-[4-chloro-2-({[(cyclopropyl-carbamoyl)methyl]carbamoyl} (methanesulfonyl)methyl)-1,3-benzothiazol-6-yl]phenyl} carbamate]
137 | Cc1ncc(-c2ccc3sc(C(C(=O)NCC(=O)NC4CC4)S(C)(=O)=O)nc3c2F)cn1 (stereo not drawn) [Example 126, N-[(cyclopropyl-carbamoyl)methyl]-2-[4-fluoro-5-(2-methylpyrimidin-5-yl)-1,3-benzothiazol-2-yl]-2-methanesulfonyl-acetamide]
3 | CS(=O)(=O)C(C(=O)NCC(=O)NC1CC1)c1nc2c(F)c(-c3ccc(NC(=O)OCc4ccccc4)cc3)ccc2s1 (stereo not drawn) [Example 127, benzyl N-{4-[2-({[(cyclopropyl-carbamoyl)methyl]carbamoyl} (methanesulfonyl)methyl)-4-fluoro-1,3-benzothiazol-5-yl]phenyl} carbamate]
97 | COCCS(=O)(=O)C(C(=O)NCC(=O)NC1CC1)c1nc2cc(-c3ccc(-c4nnn[nH]4)cc3)c(F)cc2s1 (stereo not drawn) [Example 128, N-[(cyclopropyl-carbamoyl)methyl]-2-{6-fluoro-5-[4-(1H-1,2,3,4-tetrazol-5-yl)phenyl]-1,3-benzothiazol-2-yl}-2-(2-methoxyethane-sulfonyl) acetamide]
12 | COCCS(=O)(=O)C(C(=O)NCC(=O)NC1CC1)c1nc2cc(-c3cccc(-c4cc[nH]n4)c3)c(F)cc2s1 (stereo not drawn) [Example 129, N-[(cyclopropyl-carbamoyl)methyl]-2-{6-fluoro-5-[3-(1H-pyrazol-3-yl)phenyl]-1,3-benzothiazol-2-yl}-2-(2-methoxyethane-sulfonyl) acetamide]
18 | COCCS(=O)(=O)C(C(=O)NCC(=O)NC1CC1)c1nc2cc(-c3ccc(-c4ccn[nH]4)cc3)c(F)cc2s1 (stereo not drawn) [Example 130, N-[(cyclopropyl-carbamoyl)methyl]-2-{6-fluoro-5-[4-(1H-pyrazol-5-yl)phenyl]-1,3-benzothiazol-2-yl}-2-(2-methoxyethane-sulfonyl) acetamide]
145 | COCCS(=O)(=O)C(C(=O)NCC(=O)NC1CC1)c1nc2cc(-c3cccc(-c4nnn[nH]4)c3)c(F)cc2s1 (stereo not drawn) [Example 133, N-[(cyclopropyl-carbamoyl)methyl]-2-{6-fluoro-5-[3-(1H-1,2,3,4-tetrazol-5-yl)phenyl]-1,3-benzothiazol-2-yl}-2-(2-methoxyethane-sulfonyl) acetamide]
2 | COCCS(=O)(=O)C(C(=O)NCC(=O)NC1CC1)c1nc2cc(-c3cccc(C(=O)OC(C)(C)C)c3)ccc2s1 (stereo not drawn) [Example 134, tert-butyl 3-[2-({[(cyclopropyl-carbamoyl)methyl]carbamoyl}(2-methoxyethane-sulfonyl)methyl)-1,3-benzothiazol-5-yl]benzoate]
49 | COCCS(=O)(=O)C(C(=O)NCC(=O)NC1CC1)c1nc2cc(-c3ccc(F)cc3)ccc2s1 (stereo not drawn) [Example 135, N-[(cyclopropyl-carbamoyl)methyl]-2-[5-(4-fluorophenyl)-1,3-benzothiazol-2-yl]-2-(2-methoxyethane-sulfonyl) acetamide]
12 | COCCS(=O)(=O)C(C(=O)NCC(=O)NC1CC1)c1nc2cc(F)c(-c3cnc(OC)c(N)c3)cc2s1 (stereo not drawn) [Example 140]
3 | COCCS(=O)(=O)C(C(=O)NCC(=O)NC1CC1)c1nc2cc(F)c(-c3ccc(-c4ccno4)cc3)cc2s1 (stereo not drawn) [Example 145, N-[(cyclopropyl-carbamoyl)methyl]-2-{5-fluoro-6-[4-(1,2-oxazol-5-yl)phenyl]-1,3-benzothiazol-2-yl}-2-(2-methoxyethane-sulfonyl) acetamide]
6 | COCCS(=O)(=O)C(C(=O)NCC(=O)NC1CC1)c1nc2cc(F)c(-c3ccc(-c4nn[nH]n4)cc3)cc2s1 (stereo not drawn) [Example 146, N-[(cyclopropyl-carbamoyl)methyl]-2-{5-fluoro-6-[4-(2H-1,2,3,4-tetrazol-5-yl)phenyl]-1,3-benzothiazol-2-yl}-2-(2-methoxyethane-sulfonyl)acetamide]
4 | COCCS(=O)(=O)C(C(=O)NCC(=O)NC1CC1)c1nc2cc(F)c(-c3ccc(-c4nnc(C)o4)cc3)cc2s1 (stereo not drawn) [Example 147, N-[(cyclopropyl-carbamoyl)methyl]-2-{5-fluoro-6-[4-(5-methyl-1,3,4-oxadiazol-2-yl)phenyl]-1,3-benzothiazol-2-yl}-2-(2-methoxyethane-sulfonyl) acetamide]
2 | COCCS(=O)(=O)C(C(=O)NCC(=O)NC1CC1)c1nc2cc(F)c(-c3ccc4[nH]c(=O)ccc4c3)cc2s1 (stereo not drawn) [Example 149, N-[(cyclopropyl-carbamoyl)methyl]-2-[5-fluoro-6-(2-oxo-1,2-dihydroquinolin-6-yl)-1,3-benzothiazol-2-yl]-2-(2-methoxyethane-sulfonyl) acetamide]
2 | COCCS(=O)(=O)C(C(=O)NCC(=O)NC1CC1)c1nc2cc(F)c(-c3ccc4c(c3)CNC4=O)cc2s1 (stereo not drawn) [Example 150, N-[(cyclopropyl-carbamoyl)methyl]-2-[5-fluoro-6-(1-oxo-2,3-dihydro-1H-isoindol-5-yl)-1,3-benzothiazol-2-yl]-2-(2-methoxyethane-sulfonyl) acetamide]
